Laboratory results taken from ChEMBL document CHEMBL1201862, “PubChem BioAssay data set” (2004).
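Protocol summary: plate cells (96-well), add compound at 5 concentrations, incubate 48 h, interpolate endpoints linearly. Here, GI50 denotes the concentration required for 50% inhibition of growth.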 Active and inactive are the calls of the source. Cut-off read from the data, not from the text of the source: active = GI50 up to about 1.1 µM and inactive = higher.

Legend:
Experiment in all cases: DTP human tumour cell line panel, 48 h
TK-10 = system: TK-10
SN12C = system: SN12C
RXF 393 = system: RXF 393
MDA-N = system: MDA-N
SK-MEL-28 = system: SK-MEL-28
SK-OV-3 = system: SK-OV-3
OVCAR-8 = system: OVCAR-8
A549 = system: A549
Hs-578T = system: Hs-578T
SNB-19 = system: SNB-19
M14 = system: M14
HL-60 = system: HL-60
K562 = system: K562
UACC-62 = system: UACC-62
SR = system: SR
OVCAR-4 = system: OVCAR-4
MDA-MB-231 = system: MDA-MB-231
Malme-3M = system: Malme-3M
HCC 2998 = system: HCC 2998
COLO 205 = system: COLO 205

| SMILES | GI50 (TK-10) | GI50 (SN12C) | GI50 (RXF 393) | GI50 (MDA-N) | GI50 (SK-MEL-28) | GI50 (SK-OV-3) | GI50 (OVCAR-8) | GI50 (A549) | GI50 (Hs-578T) | GI50 (SNB-19) | GI50 (M14) | GI50 (HL-60) | GI50 (K562) | GI50 (UACC-62) | GI50 (SR) | GI50 (OVCAR-4) | GI50 (MDA-MB-231) | GI50 (Malme-3M) | GI50 (HCC 2998) | GI50 (COLO 205) |
| --- | --- | --- | --- | --- | --- | --- | --- | --- | --- | --- | --- | --- | --- | --- | --- | --- | --- | --- | --- | --- |
| N#Cc1c(N2CCCC2)nsc1NCc1ccccc1 | > 100 µM (inactive) | > 100 µM (inactive) | 15 µM (inactive) | > 100 µM (inactive) | > 100 µM (inactive) | > 100 µM (inactive) | > 100 µM (inactive) | > 100 µM (inactive) | 60.4 µM (inactive) | > 100 µM (inactive) | > 100 µM (inactive) | > 100 µM (inactive) | > 100 µM (inactive) | 75.2 µM (inactive) | > 100 µM (inactive) | > 100 µM (inactive) | > 100 µM (inactive) | > 100 µM (inactive) | > 100 µM (inactive) | > 100 µM (inactive) |
| O=C(C=P(c1ccccc1)(c1ccccc1)c1ccccc1)c1ccc(-c2ccc(F)cc2F)cc1 | 2.2 µM (inactive) | 2.31 µM (inactive) | 2.64 µM (inactive) | 2.78 µM (inactive) | 2.95 µM (inactive) | 2.83 µM (inactive) | – | 2.73 µM (inactive) | 3.97 µM (inactive) | 4.73 µM (inactive) | 2.42 µM (inactive) | 2.43 µM (inactive) | 2.18 µM (inactive) | 1.85 µM (inactive) | 3.44 µM (inactive) | 2.9 µM (inactive) | 2.1 µM (inactive) | 2.72 µM (inactive) | 2.08 µM (inactive) | 1.64 µM (inactive) |
| CN(/N=C/c1ccccn1)C1=NCCCN1 | > 100 µM (inactive) | – | > 100 µM (inactive) | > 100 µM (inactive) | > 100 µM (inactive) | > 100 µM (inactive) | > 100 µM (inactive) | > 100 µM (inactive) | > 100 µM (inactive) | > 100 µM (inactive) | > 100 µM (inactive) | > 100 µM (inactive) | > 100 µM (inactive) | > 100 µM (inactive) | > 100 µM (inactive) | > 100 µM (inactive) | > 100 µM (inactive) | > 100 µM (inactive) | > 100 µM (inactive) | > 100 µM (inactive) |
| CCN(CC)CCN(/C(=N/c1ccccc1)N1CCCCC1)c1ccccc1 | 13.2 µM (inactive) | 7 µM (inactive) | 17.7 µM (inactive) | 1.78 µM (inactive) | 16.2 µM (inactive) | 11.9 µM (inactive) | 12.2 µM (inactive) | 14.8 µM (inactive) | 10.3 µM (inactive) | 17.8 µM (inactive) | 6.34 µM (inactive) | 1.63 µM (inactive) | 2.18 µM (inactive) | 6.12 µM (inactive) | 3.4 µM (inactive) | 3.87 µM (inactive) | 3.89 µM (inactive) | 15.5 µM (inactive) | 6 µM (inactive) | 2.3 µM (inactive) |
| CC(=O)c1cccc(Nc2c3ccccc3nc3occc23)c1 | 16.2 µM (inactive) | 8.38 µM (inactive) | 0.09 µM (active) | 2.58 µM (inactive) | 2.67 µM (inactive) | 10.6 µM (inactive) | 15.3 µM (inactive) | 16.5 µM (inactive) | 5.15 µM (inactive) | 10.9 µM (inactive) | 4.3 µM (inactive) | 3.48 µM (inactive) | 3.26 µM (inactive) | 9.04 µM (inactive) | 0.705 µM (active) | 0.438 µM (active) | 9.93 µM (inactive) | 4.9 µM (inactive) | 5.21 µM (inactive) | 11.7 µM (inactive) |
| CC(=O)OCC1OC(OC(C)=O)C(Nc2ncc(-c3ccc(C)cc3)s2)C(OC(C)=O)C1OC(C)=O (stereo not drawn) | 18.8 µM (inactive) | 18.2 µM (inactive) | 16.1 µM (inactive) | 18.4 µM (inactive) | 17.4 µM (inactive) | 44.1 µM (inactive) | 24 µM (inactive) | 18.6 µM (inactive) | 22.5 µM (inactive) | 21.4 µM (inactive) | 18.1 µM (inactive) | > 10 µM (inactive) | 15.7 µM (inactive) | 14.4 µM (inactive) | 26.4 µM (inactive) | 16.9 µM (inactive) | 19.9 µM (inactive) | 21.2 µM (inactive) | 29.7 µM (inactive) | 17.7 µM (inactive) |
| Nc1ccc(S2(c3ccc(N)cc3)C=C(c3ccccc3)C(c3ccccc3)=C2)cc1 | > 27.9 µM (inactive) | > 25.3 µM (inactive) | > 26.9 µM (inactive) | > 30.2 µM (inactive) | > 31.1 µM (inactive) | > 26.9 µM (inactive) | > 26.4 µM (inactive) | > 29.4 µM (inactive) | > 100 µM (inactive) | > 45 µM (inactive) | > 72.8 µM (inactive) | > 100 µM (inactive) | > 46.9 µM (inactive) | > 35.6 µM (inactive) | > 45.5 µM (inactive) | 11 µM (inactive) | > 24.2 µM (inactive) | > 100 µM (inactive) | > 54 µM (inactive) | > 45 µM (inactive) |
| O=C(O)CCSC(=S)Nc1ccc([N+](=O)[O-])cc1 | 51.8 µM (inactive) | > 74 µM (inactive) | > 60.8 µM (inactive) | 23.1 µM (inactive) | 41.3 µM (inactive) | > 100 µM (inactive) | 36.6 µM (inactive) | > 83.2 µM (inactive) | > 100 µM (inactive) | > 81.8 µM (inactive) | > 85.9 µM (inactive) | 20.8 µM (inactive) | 27.2 µM (inactive) | 21.6 µM (inactive) | 11.7 µM (inactive) | > 56.5 µM (inactive) | > 100 µM (inactive) | 38.2 µM (inactive) | > 89.9 µM (inactive) | 97.9 µM (inactive) |
| CC1=C(/C=C/Cl)CC(Cl)C(C)(Cl)C1 (stereo not drawn) | > 100 µM (inactive) | > 100 µM (inactive) | 10.6 µM (inactive) | > 100 µM (inactive) | > 100 µM (inactive) | > 100 µM (inactive) | > 100 µM (inactive) | > 100 µM (inactive) | > 100 µM (inactive) | > 100 µM (inactive) | > 100 µM (inactive) | 20.4 µM (inactive) | > 100 µM (inactive) | > 100 µM (inactive) | > 100 µM (inactive) | 83.8 µM (inactive) | > 100 µM (inactive) | > 100 µM (inactive) | > 100 µM (inactive) | > 100 µM (inactive) |
| CCOP(=O)(O)C(Nc1ccc(/N=N/c2ccccc2)cc1)c1cccc(C(Nc2ccc(/N=N/c3ccccc3)cc2)P(=O)(O)OCC)c1 (stereo not drawn) | > 100 µM (inactive) | 52 µM (inactive) | 75.5 µM (inactive) | 60.5 µM (inactive) | 32.3 µM (inactive) | 81.3 µM (inactive) | 55 µM (inactive) | 34.2 µM (inactive) | 38.7 µM (inactive) | 59.8 µM (inactive) | 40.6 µM (inactive) | 22.1 µM (inactive) | 19 µM (inactive) | 29.4 µM (inactive) | 31.3 µM (inactive) | 47.2 µM (inactive) | 58.6 µM (inactive) | > 100 µM (inactive) | 25.2 µM (inactive) | 21.6 µM (inactive) |
